This is an account of results in EPA's ToxValDB 9.5 (doi:10.2903/j.efsa.2017.4912).

One series has as its system Rattus norvegicus. The following applies: for NOAEL: body weight.
A further series deals with Oncorhynchus mykiss. As to conditions: acute; duration: 96 hours; mortality.
A further series deals with Tagia sp. The following applies: chronic/long-term; duration: 56 days.
For the next series, the system named is Cyprinodon variegatus. As to conditions: chronic/long-term; duration: 28 days; other.
Another series deals with Anas platyrhynchos. As to conditions: reproductive; duration: 21 weeks; M; reproduction.
The subject of a further series is Folsomia candida. As to conditions: chronic/long-term; duration: 28 days.
The next series concerns Apis mellifera. The following applies: acute, duration: 48 hours, mortality.
The next series has as its system Typhlodromus pyri. Description: LR50; higher = less toxic. As to conditions: not reported; duration: 7 days; mortality.

Each structure is given as a SMILES string. Converted amounts (≈) assume the structure as drawn.

With `COC(=O)c1ccccc1S(=O)(=O)NC(=O)Nc1nc(C)nc(OC)n1` [Metsulfuron-methyl], the NOAEL with Oryctolagus sp. (developmental, development) worked out at 25 mg/kg-day; in the series on Rattus norvegicus (chronic, duration: 2 years), 22.4 mg/kg-day.

With `COC(=O)c1ccccc1S(=O)(=O)NC(=O)N(C)c1nc(C)nc(OC)n1` [Tribenuron-methyl], the median lethal concentration (LC50) in the series on Oncorhynchus mykiss is 738 µg/mL (≈ 1870 µM). In addition, the NOEC amounted to 3.2 mg/kg in the series with Tagia sp., 11.9 mg/L in the series with Cyprinodon variegatus and 30.8 mg/kg with Folsomia candida. Also, the LD50 in the series on Colinus virginianus (acute, oral, mortality) is above 2250 mg/kg-day; in the series with Apis mellifera (dermal), above 98.4 µg/piece; in the series with Apis mellifera (oral, unspecified) it was above 9.1 µg/piece; in the series with Rattus norvegicus (acute, oral, mortality), above 5000 mg/kg-day. Also, the NOEL in the series with Colinus virginianus (reproduction developmental, duration: 23 weeks, reproduction) stood at 21 mg/kg-day; in the series with Anas platyrhynchos, 21 mg/kg-day. The no observed adverse effect level (NOAEL) came to 20 mg/kg-day in the series with Oryctolagus sp. (reproduction developmental, mortality); 1 mg/kg-day with Rattus norvegicus (chronic, duration: 2 years); 2 mg/kg-day in the series with Rattus norvegicus (reproduction developmental); 7 mg/kg-day with Rattus norvegicus (subchronic, duration: 90 days, oral). The molecule further came in with an LR50 in the series with Typhlodromus pyri above 29.6 g/ha.
